From patent US10765114B2, “4-amino-6-(pyridyl and 2-substitutedphenyl)-picolinates and 6-amino-2-(pyridyl and 2-substitutedphenyl)-pyrimidine-4-carboxylates and their use as herbicides” (Dow AgroSciences LLC, priority 2013, dated 2020)
Like-named read-outs stand apart in the source and are kept apart here.

Legend:
[1] = tested on: Key Grass and Sedge Weeds as well as Grass Crops; assay: Post-Emergent Test II (Table 6); format: in vivo; conditions: post-emergence, 336 h, 14 days after application; for pest or weed control at 70 g/ha: 70 g ai/ha; for pest or weed control at 140 g/ha: 140 g ai/ha
Outline: (§1)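 Visual injury ratings (0 = no injury, 100 = complete kill) taken 14 days after treatment, relative to untreated controls. Compounds, in an acetone/DMSO aqueous carrier with crop oil and surfactant, were applied by track sprayer at 187 L/ha, in a twofold dilution series from the top rate, to plants at the first to second true-leaf stage.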

[2] = tested on: Key Broadleaf Weed and Crop Species; assay: Post-Emergent Test II (Table 5); format: in vivo; conditions: post-emergence, 336 h; for pest or weed control at 70 g/ha: application rate 70 (kg ai/ha; footnote: g ai/ha); for pest or weed control at 140 g/ha: application rate 140 (kg ai/ha; footnote: g ai/ha)
Outline: as §1

[3] = CYPSS, read-out: Visual Growth Reduction (%) 14 Days After Application CYPSS
[4] = DIGSA: crabgrass (Digitaria sanguinalis), read-out: Visual Growth Reduction (%) 14 Days After Application DIGSA
[5] = ECHSS, read-out: Visual Growth Reduction (%) 14 Days After Application ECHSS
[6] = ORYSS (crop), read-out: Visual Growth Reduction (%) 14 Days After Application ORYSS
[7] = SETFA: giant foxtail (Setaria faberi), read-out: Visual Growth Reduction (%) 14 Days After Application SETFA
[8] = SORVU: grain sorghum (Sorghum vulgare), read-out: Visual Growth Reduction (%) 14 Days After Application SORVU
[9] = TRZSS (crop), read-out: Visual Growth Reduction (%) 14 Days After Application TRZSS
[10] = ZEAMX: maize, corn (Zea mays), read-out: Visual Growth Reduction (%) 14 Days After Application ZEAMX
[11] = Abutilon theophrasti, ABUTH: velvetleaf (Abutilon theophrasti), read-out: Visual Growth Reduction (%) 14 Days After Application ABUTH
[12] = Amaranthus retroflexus, AMARE: redroot pigweed (Amaranthus retroflexus), read-out: Visual Growth Reduction (%) 14 Days After Application AMARE
[13] = Brassica napus, BRSSS: oilseed rape, canola (Brassica napus), read-out: Visual Growth Reduction (%) 14 Days After Application BRSSS
[14] = Chenopodium album, CHEAL: lambsquarters (Chenopodium album), read-out: Visual Growth Reduction (%) 14 Days After Application CHEAL
[15] = Euphorbia heterophylla, EPHHL: wild poinsettia (Euphorbia heterophylla), read-out: Visual Growth Reduction (%) 14 Days After Application EPHHL
[16] = Helianthus annuus, HELAN: sunflower (Helianthus annuus), read-out: Visual Growth Reduction (%) 14 Days After Application HELAN
[17] = Viola tricolor, VIOTR: wild pansy (Viola tricolor), read-out: Visual Growth Reduction (%) 14 Days After Application VIOTR

| melting point | Structure (SMILES) | pest or weed control at 70 g/ha [1, 3] [%] | pest or weed control at 140 g/ha [1, 3] [%] | pest or weed control at 70 g/ha [1, 4] [%] | pest or weed control at 140 g/ha [1, 4] [%] | pest or weed control at 70 g/ha [1, 5] [%] | pest or weed control at 140 g/ha [1, 5] [%] | pest or weed control at 70 g/ha [1, 6] [%] | pest or weed control at 140 g/ha [1, 6] [%] | pest or weed control at 70 g/ha [1, 7] [%] | pest or weed control at 140 g/ha [1, 7] [%] | pest or weed control at 70 g/ha [1, 8] [%] | pest or weed control at 140 g/ha [1, 8] [%] | pest or weed control at 70 g/ha [1, 9] [%] | pest or weed control at 140 g/ha [1, 9] [%] | pest or weed control at 70 g/ha [1, 10] [%] | pest or weed control at 70 g/ha [2, 11] [%] | pest or weed control at 140 g/ha [2, 11] [%] | pest or weed control at 70 g/ha [2, 12] [%] | pest or weed control at 140 g/ha [2, 12] [%] | other results |
| --- | --- | --- | --- | --- | --- | --- | --- | --- | --- | --- | --- | --- | --- | --- | --- | --- | --- | --- | --- | --- | --- |
| 184 °C (dec.) | Nc1cc(-c2ccc(Cl)nc2Cl)nc(C(=O)O)c1Cl [Compound 1, 4-amino-2′,5,6′-trichloro-[2,3′-bipyridine]-6-carboxylic acid] | 0 to 29 | 0 to 29 | 0 to 29 | 0 to 29 | 0 to 29 | 0 to 29 | 0 to 29 | 0 to 29 | 0 to 29 | 0 to 29 | 0 to 29 | 0 to 29 | 0 to 29 | 0 to 29 | 0 to 29 | 30 to 44 | 75 to 84 | 95 to 100 | 95 to 100 | pest or weed control at 140 g/ha [1, 10]: 0 to 29%; pest or weed control at 70 g/ha [2, 13]: 85 to 94%; pest or weed control at 140 g/ha [2, 13]: 95 to 100%; pest or weed control at 70 g/ha [2, 14]: 85 to 94%; pest or weed control at 140 g/ha [2, 14]: 95 to 100%; pest or weed control at 70 g/ha [2, 15]: 0 to 29%; pest or weed control at 140 g/ha [2, 15]: 0 to 29%; pest or weed control at 70 g/ha [2, 16]: 75 to 84%; pest or weed control at 140 g/ha [2, 16]: 85 to 94%; pest or weed control at 70 g/ha [2, 17]: 0 to 29%; pest or weed control at 140 g/ha [2, 17]: 30 to 44% |
| 133 to 134 °C | COc1nc(C(F)(F)F)ccc1-c1nc(C(=O)O)c(Cl)c(N)c1F [Compound 2, 4-amino-5-chloro-3-fluoro-2′-methoxy-6′-(trifluoromethyl)-[2,3′-bipyridine]-6-carboxylic acid] | 0 to 29 | 0 to 29 | 0 to 29 | 0 to 29 | 0 to 29 | 0 to 29 | 0 to 29 | 0 to 29 | 0 to 29 | 0 to 29 | 0 to 29 | 0 to 29 | 0 to 29 | 0 to 29 | 0 to 29 | 0 to 29 | 0 to 29 | 0 to 29 | 0 to 29 | pest or weed control at 140 g/ha [1, 10]: 0 to 29%; pest or weed control at 70 g/ha [2, 13]: 30 to 44%; pest or weed control at 140 g/ha [2, 13]: 45 to 59%; pest or weed control at 70 g/ha [2, 14]: 0 to 29%; pest or weed control at 140 g/ha [2, 14]: 0 to 29%; pest or weed control at 70 g/ha [2, 15]: 0 to 29%; pest or weed control at 140 g/ha [2, 15]: 0 to 29%; pest or weed control at 70 g/ha [2, 16]: 60 to 74%; pest or weed control at 140 g/ha [2, 16]: 60 to 74%; pest or weed control at 70 g/ha [2, 17]: 0 to 29%; pest or weed control at 140 g/ha [2, 17]: 0 to 29% |
| 188 °C | COc1c(N)nc(-c2ccc(C(F)(F)F)nc2)nc1C(=O)O [Compound 5, 6-amino-5-methoxy-2-(6-(trifluoromethyl)pyridin-3-yl)pyrimidine-4-carboxylic acid] | 0 to 29 | 0 to 29 | 60 to 74 | 75 to 84 | 85 to 94 | 85 to 94 | 0 to 29 | 0 to 29 | 0 to 29 | 30 to 44 | 0 to 29 | 0 to 29 | 0 to 29 | 30 to 44 | 0 to 29 | 0 to 29 | 0 to 29 | 75 to 84 | 85 to 94 | pest or weed control at 140 g/ha [1, 10]: 0 to 29%; pest or weed control at 70 g/ha [2, 13]: 85 to 94%; pest or weed control at 140 g/ha [2, 13]: 85 to 94%; pest or weed control at 70 g/ha [2, 14]: 0 to 29%; pest or weed control at 140 g/ha [2, 14]: 45 to 59%; pest or weed control at 70 g/ha [2, 15]: 85 to 94%; pest or weed control at 140 g/ha [2, 15]: 95 to 100%; pest or weed control at 70 g/ha [2, 16]: 60 to 74%; pest or weed control at 140 g/ha [2, 16]: 75 to 84%; pest or weed control at 70 g/ha [2, 17]: 0 to 29%; pest or weed control at 140 g/ha [2, 17]: 30 to 44% |
| 195 to 196 °C | COC(=O)c1nc(-c2ccc(Cl)c(Cl)c2Cl)c(F)c(N)c1Cl [Compound 12] | 0 to 29 | 45 to 59 | 30 to 44 | 45 to 59 | 0 to 29 | 0 to 29 | 0 to 29 | 0 to 29 | 45 to 59 | 45 to 59 | 0 to 29 | 30 to 44 | 0 to 29 | 0 to 29 | 75 to 84 | 85 to 94 | 85 to 94 | 95 to 100 | 95 to 100 | pest or weed control at 70 g/ha [2, 13]: 75 to 84%; pest or weed control at 140 g/ha [2, 13]: 75 to 84%; pest or weed control at 70 g/ha [2, 14]: 85 to 94%; pest or weed control at 140 g/ha [2, 14]: 85 to 94%; pest or weed control at 70 g/ha [2, 15]: 75 to 84%; pest or weed control at 140 g/ha [2, 15]: 75 to 84%; pest or weed control at 70 g/ha [2, 16]: 85 to 94%; pest or weed control at 140 g/ha [2, 16]: 85 to 94%; pest or weed control at 70 g/ha [2, 17]: 0 to 29%; pest or weed control at 140 g/ha [2, 17]: 0 to 29% |
